PubChem BioAssay (NCI)
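Where inhibition never reached the appropriate level, the endpoint shown equals the highest concentration tested. Otherwise, values were interpolated linearly from a five-concentration, 48-hour dose response in 96-well plates. TGI: total growth inhibition.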

Assays:
Assay in all cases: NCI tumour cell line growth inhibition, 48 h
XF 498 CNS = test system: XF 498 CNS
LXFL 529 NSCLC = test system: LXFL 529 NSCLC
SNB-78 CNS = test system: SNB-78 CNS
M19-MEL melanoma = test system: M19-MEL melanoma
HOP-18 NSCLC = test system: HOP-18 NSCLC
SR leukemia = test system: SR leukemia
DMS 114 small cell lung = test system: DMS 114 small cell lung
DLD-1 colon = test system: DLD-1 colon
RXF-631 renal = test system: RXF-631 renal
A549 NSCLC = test system: A549 NSCLC
HOP-62 NSCLC = test system: HOP-62 NSCLC
KM20L2 colon = test system: KM20L2 colon
HCT-116 colon = test system: HCT-116 colon
DMS 273 small cell lung = test system: DMS 273 small cell lung

C/C(=N\NC(=S)NC(CCC(=O)O)C(=O)O)c1cnccn1 (centres undefined)
TGI (XF 498 CNS): > 100 µM | TGI (LXFL 529 NSCLC): > 100 µM | TGI (SNB-78 CNS): > 100 µM | TGI (M19-MEL melanoma): > 100 µM | TGI (HOP-18 NSCLC): > 100 µM | TGI (SR leukemia): > 100 µM | TGI (DMS 114 small cell lung): > 100 µM | TGI (DLD-1 colon): > 100 µM | TGI (RXF-631 renal): > 100 µM | TGI (A549 NSCLC): > 100 µM | TGI (HOP-62 NSCLC): > 100 µM | TGI (KM20L2 colon): > 100 µM | TGI (HCT-116 colon): > 100 µM

O=C(Cc1ccc([N+](=O)[O-])c([N+](=O)[O-])c1CC(=O)C(=O)Nc1cc(Cl)ccc1Cl)C(=O)Nc1cc(Cl)ccc1Cl
TGI (LXFL 529 NSCLC): > 100 µM | TGI (SNB-78 CNS): > 100 µM | TGI (M19-MEL melanoma): > 100 µM | TGI (DMS 273 small cell lung): 87.3 µM | TGI (HOP-18 NSCLC): > 100 µM | TGI (SR leukemia): > 100 µM | TGI (DMS 114 small cell lung): > 100 µM | TGI (DLD-1 colon): > 100 µM | TGI (A549 NSCLC): > 100 µM | TGI (HOP-62 NSCLC): > 100 µM | TGI (KM20L2 colon): > 100 µM | TGI (HCT-116 colon): > 100 µM

CCN(CC)CCC1(C2CCCCC2)CCC(=O)NC1=O (centres undefined)
TGI (XF 498 CNS): > 100 µM | TGI (LXFL 529 NSCLC): > 100 µM | TGI (SNB-78 CNS): > 100 µM | TGI (M19-MEL melanoma): > 100 µM | TGI (DMS 273 small cell lung): > 100 µM | TGI (DMS 114 small cell lung): > 100 µM | TGI (DLD-1 colon): > 100 µM | TGI (RXF-631 renal): > 100 µM | TGI (A549 NSCLC): > 100 µM | TGI (HOP-62 NSCLC): > 100 µM | TGI (KM20L2 colon): > 100 µM | TGI (HCT-116 colon): > 100 µM

CCOc1ccc(/C=C(\Cl)c2ccc(OC)cc2)cc1
TGI (XF 498 CNS): > 100 µM | TGI (LXFL 529 NSCLC): > 100 µM | TGI (SNB-78 CNS): > 100 µM | TGI (M19-MEL melanoma): > 100 µM | TGI (DMS 273 small cell lung): > 100 µM | TGI (HOP-18 NSCLC): > 100 µM | TGI (SR leukemia): > 100 µM | TGI (DMS 114 small cell lung): > 100 µM | TGI (DLD-1 colon): > 100 µM | TGI (A549 NSCLC): > 100 µM | TGI (HOP-62 NSCLC): > 100 µM | TGI (KM20L2 colon): > 100 µM | TGI (HCT-116 colon): > 100 µM

COc1ccccc1-n1c(N)c2c(C)c(-c3ccccc3)[nH]c2nc1=S
TGI (XF 498 CNS): > 100 µM | TGI (LXFL 529 NSCLC): > 100 µM | TGI (M19-MEL melanoma): > 100 µM | TGI (DMS 273 small cell lung): > 100 µM | TGI (HOP-18 NSCLC): > 100 µM | TGI (SR leukemia): > 100 µM | TGI (DMS 114 small cell lung): > 100 µM | TGI (DLD-1 colon): > 100 µM | TGI (A549 NSCLC): > 100 µM | TGI (HOP-62 NSCLC): > 100 µM | TGI (KM20L2 colon): > 100 µM | TGI (HCT-116 colon): > 100 µM

CCOC(=O)CCC(NC(=O)c1ccc(N=Cc2nc3ccccc3nc2-c2ccccc2)cc1)C(=O)OCC (centres undefined)
TGI (XF 498 CNS): > 100 µM | TGI (LXFL 529 NSCLC): > 100 µM | TGI (SNB-78 CNS): > 100 µM | TGI (DMS 273 small cell lung): > 100 µM | TGI (HOP-18 NSCLC): > 100 µM | TGI (SR leukemia): > 100 µM | TGI (DMS 114 small cell lung): > 100 µM | TGI (DLD-1 colon): > 100 µM | TGI (RXF-631 renal): > 100 µM | TGI (A549 NSCLC): > 100 µM | TGI (HOP-62 NSCLC): > 100 µM | TGI (KM20L2 colon): > 100 µM | TGI (HCT-116 colon): > 100 µM

CC/C(=N/O)c1ccc2[nH]c3c(C)cc([N+](=O)[O-])c(C)c3c2c1
TGI (XF 498 CNS): > 100 µM | TGI (SNB-78 CNS): > 100 µM | TGI (M19-MEL melanoma): > 100 µM | TGI (DMS 273 small cell lung): 60.8 µM | TGI (HOP-18 NSCLC): > 100 µM | TGI (SR leukemia): > 100 µM | TGI (DMS 114 small cell lung): > 100 µM | TGI (DLD-1 colon): > 100 µM | TGI (A549 NSCLC): > 100 µM | TGI (HOP-62 NSCLC): > 100 µM | TGI (HCT-116 colon): > 100 µM

Cc1ccc(NC(=O)CSc2nnc(Cc3ccccc3)o2)cc1
TGI (LXFL 529 NSCLC): > 100 µM | TGI (SNB-78 CNS): > 100 µM | TGI (M19-MEL melanoma): > 100 µM | TGI (DMS 273 small cell lung): > 100 µM | TGI (HOP-18 NSCLC): > 100 µM | TGI (DMS 114 small cell lung): > 100 µM | TGI (DLD-1 colon): > 100 µM | TGI (A549 NSCLC): > 100 µM | TGI (HOP-62 NSCLC): > 100 µM | TGI (KM20L2 colon): > 100 µM | TGI (HCT-116 colon): > 100 µM

CC1(C)OCN(c2ccc(S(N)(=O)=O)cc2)Cn2c1nc1ccccc12
TGI (XF 498 CNS): > 100 µM | TGI (LXFL 529 NSCLC): > 100 µM | TGI (SNB-78 CNS): > 100 µM | TGI (M19-MEL melanoma): > 100 µM | TGI (DMS 273 small cell lung): > 100 µM | TGI (HOP-18 NSCLC): > 100 µM | TGI (SR leukemia): > 100 µM | TGI (DMS 114 small cell lung): > 100 µM | TGI (DLD-1 colon): > 100 µM | TGI (A549 NSCLC): > 100 µM | TGI (HOP-62 NSCLC): > 100 µM | TGI (KM20L2 colon): > 100 µM | TGI (HCT-116 colon): > 100 µM

C#CCNC(=O)NCCCCC(NC(C)=O)C(=O)NCc1ccccc1 (centres undefined)
TGI (XF 498 CNS): > 100 µM | TGI (LXFL 529 NSCLC): > 100 µM | TGI (SNB-78 CNS): > 100 µM | TGI (M19-MEL melanoma): > 100 µM | TGI (HOP-18 NSCLC): > 100 µM | TGI (SR leukemia): > 100 µM | TGI (DMS 114 small cell lung): > 100 µM | TGI (DLD-1 colon): > 100 µM | TGI (RXF-631 renal): > 100 µM | TGI (A549 NSCLC): > 100 µM | TGI (HOP-62 NSCLC): > 100 µM | TGI (KM20L2 colon): > 100 µM | TGI (HCT-116 colon): > 100 µM

CC(C)CC1c2[nH]c3ccccc3c2C[C@H]2C(=O)NC(CCCCNC(=O)OC(C)(C)C)C(=O)N12 (some centres undefined)
TGI (SR leukemia): 50 µM | TGI (A549 NSCLC): > 100 µM | TGI (HOP-62 NSCLC): > 100 µM | TGI (HCT-116 colon): > 100 µM

NC(N)=NS(=O)(=O)c1ccc(NNC(=O)c2cccc3c(=O)c4ccccc4[nH]c23)cc1
TGI (SR leukemia): > 100 µM | TGI (A549 NSCLC): > 100 µM | TGI (HOP-62 NSCLC): 73.5 µM | TGI (HCT-116 colon): 59.5 µM

CCN(CC)CCCNc1ccc([N+](=O)[O-])c2nc3ccc(OC)cc3c(N)c12
TGI (SR leukemia): 4.05 µM | TGI (A549 NSCLC): 3.61 µM | TGI (HOP-62 NSCLC): > 10 µM | TGI (HCT-116 colon): 2.49 µM

Cc1nc(-n2nc(-c3ccccc3)cc2-c2ccccc2)sc1C(=O)/C=C/c1ccc(Cl)c(Cl)c1
TGI (XF 498 CNS): 30.8 µM | TGI (LXFL 529 NSCLC): 32 µM | TGI (SNB-78 CNS): 73.6 µM | TGI (M19-MEL melanoma): > 100 µM | TGI (DMS 273 small cell lung): > 100 µM | TGI (SR leukemia): 76.8 µM | TGI (DMS 114 small cell lung): > 100 µM | TGI (DLD-1 colon): 48.2 µM | TGI (RXF-631 renal): > 100 µM | TGI (A549 NSCLC): > 100 µM | TGI (HOP-62 NSCLC): > 100 µM | TGI (KM20L2 colon): 70.3 µM | TGI (HCT-116 colon): > 100 µM

Clc1ccc(CCc2ccncn2)c(Cl)c1
TGI (LXFL 529 NSCLC): > 100 µM | TGI (SNB-78 CNS): > 100 µM | TGI (M19-MEL melanoma): > 100 µM | TGI (DMS 273 small cell lung): > 100 µM | TGI (HOP-18 NSCLC): > 100 µM | TGI (DMS 114 small cell lung): > 100 µM | TGI (DLD-1 colon): > 100 µM | TGI (RXF-631 renal): > 100 µM | TGI (A549 NSCLC): > 100 µM | TGI (HOP-62 NSCLC): > 100 µM | TGI (KM20L2 colon): > 100 µM | TGI (HCT-116 colon): > 100 µM

COc1ccccc1-n1c(NN)nc2ccc(Br)cc2c1=O
TGI (XF 498 CNS): 92.1 µM | TGI (LXFL 529 NSCLC): > 100 µM | TGI (SNB-78 CNS): > 100 µM | TGI (M19-MEL melanoma): > 100 µM | TGI (DMS 273 small cell lung): > 100 µM | TGI (HOP-18 NSCLC): 61.5 µM | TGI (SR leukemia): > 100 µM | TGI (DMS 114 small cell lung): > 100 µM | TGI (DLD-1 colon): > 100 µM | TGI (RXF-631 renal): > 100 µM | TGI (A549 NSCLC): > 100 µM | TGI (HOP-62 NSCLC): > 100 µM | TGI (KM20L2 colon): > 100 µM

CCCCNC(=NCc1ccccc1)NC#N
TGI (XF 498 CNS): > 100 µM | TGI (LXFL 529 NSCLC): > 100 µM | TGI (SNB-78 CNS): > 100 µM | TGI (M19-MEL melanoma): > 100 µM | TGI (DMS 273 small cell lung): > 100 µM | TGI (SR leukemia): > 100 µM | TGI (DLD-1 colon): > 100 µM | TGI (A549 NSCLC): > 100 µM | TGI (HOP-62 NSCLC): > 100 µM | TGI (KM20L2 colon): > 100 µM | TGI (HCT-116 colon): > 100 µM
